Measurements reported in PMC4472440, “Structure-Dependent Immune Modulatory Activity of Protegrin-1 Analogs” (Antibiotics, 2014).
Where no end group is shown, it is not given here.

Experiments:
[1] = test system: meningococcal capsular polysaccharide (CPS) polymers (TLR2 and TLR4 ligand); assay: Inhibition of meningococcal CPS polymer activity in macrophages (Table 1); format: cell-based, Neisseria meningitidis; conditions: peptide 2 µg/mL preincubated with meningococcal CPS polymers 30 min at 37 °C, macrophages stimulated overnight; read-out behind the % not stated in Table 1
Experimental: (§1) Human THP-1 (monocyte-like cells) and murine RAW264 macrophages were stimulated with TLR ligands with or without preincubation with PG-1 and its analogs (Table 1). Purified meningococcal CPS samples were freshly dissolved in pyrogen-free sterile H2O at 1 mg/mL stock concentration and vortexed for 2 min. Working CPS concentrations (ranging from 100 µg/mL to 1 µg/mL) were made in duplicate wells using sterile PBS by serial fold dilutions in the 96-well tissue culture plates (Becton Dickinson, Franklin Lakes, NJ, USA) at 50 µL final volumes. PG-1 analogs (2 µg/mL) or PBS equivalent volumes were added to designated wells and preincubated for 30 min at 37 °C. Freshly grown THP-1 cells and murine macrophages, each adjusted to 10^6 cell/mL and 250 µL aliquots, were dispensed into each well at a final cell density of 250 × 10^3 in the designated 96-well plates. The plates were incubated overnight at 37 °C with 5% CO2 and humidity. Supernatants from stimulated cells were harvested and stored at −20 °C until use.
(§2) The cytokines TNFα and IL-1β, released from THP-1 cells, were quantified by DuoSet ELISA (R&D Systems), as previously described. […]
(§3) Freshly grown adherent RAW264 macrophages were harvested, washed and re-suspended in Dulbecco’s complete media, counted and adjusted to 10^6 cell/mL. […] Nitric oxide release was quantified using the Greiss chemical method, as previously described.

[2] = test system: RAW264 macrophages induced with meningococcal CPS polymers; assay: Nitric oxide release from RAW264 macrophages induced with meningococcal CPS polymers, Greiss method; format: cell-based, murine; conditions: RAW264, CPS doses preincubated with 2 µg/mL peptide 30 min at 37 °C, overnight, Figure 7, result in words
Experimental: Figure 7 PG-1 analogs neutralized meningococcal capsular polysaccharide (CPS) polymer activity and inhibited nitric oxide release. CPS polymers were purified from the endotoxin-deficient serogroup B meningococcal NMB-lpxA mutant designated CPS. Nitric oxide was released from murine RAW264 macrophages induced overnight with doses of meningococcal CPS polymers pre-incubated with or without 2 µg/mL of PG-1 or its analogs for 30 min at 37 °C. Nitric oxide release was measured by the Greiss method. Error bars represent ±SD from the mean of duplicate measurements. This experiment is representative of two independent experiments.
Human THP-1 (monocyte-like cells) and murine RAW264 macrophages were stimulated with TLR ligands with or without preincubation with PG-1 and its analogs (Table 1). Purified meningococcal CPS samples were freshly dissolved in pyrogen-free sterile H2O at 1 mg/mL stock concentration and vortexed for 2 min. […]
as §3

[3] = test system: meningococcal LOS (TLR4 ligand); assay: Inhibition of meningococcal LOS activity in macrophages (Table 1); format: cell-based, Neisseria meningitidis; conditions: peptide 2 µg/mL preincubated with meningococcal LOS 30 min at 37 °C, macrophages stimulated overnight; read-out behind the % not stated in Table 1
Experimental: as §1, §2, §3

[4] = test system: RAW264 macrophages induced with meningococcal LOS; assay: Nitric oxide release from RAW264 macrophages induced with meningococcal LOS, Greiss method; format: cell-based, murine; conditions: RAW264, LOS doses preincubated with 2 µg/mL peptide 30 min at 37 °C, overnight, Figure 6, result in words
Experimental: Figure 6 PG-1 analogs neutralized meningococcal LOS bioactivity and inhibited nitric oxide release. Nitric oxide was released from murine RAW264 macrophages induced overnight with meningococcal LOS doses pre-incubated with or without 2 µg/mL of PG-1 or its analogs for 30 min at 37 °C. Nitric oxide release was measured by the Greiss method. Error bars represent ± SD from the mean of duplicate measurements. This experiment is representative of two independent experiments.
as §1, with “Freshly grown THP-1 cells and murine macrophages, each adjusted to 10^6 cell/mL and 250 µL aliquots, were dispensed into each well at a final cell density of 250 × 10^3 in the designated 96-well plates. The plates were incubated overnight at 37 °C with 5% CO2 and humidity. Supernatants from stimulated cells were harvested and stored at −20 °C until use.” left out
as §3

Substance	CPS activity inhibition (%) [1] [%]	Inhibition of nitric oxide release (neutralization of CPS) [2]	LOS activity inhibition (%) [3] [%]	Inhibition of nitric oxide release (neutralization of LOS) [4]
Compound 8: linearized non-cysteine PG-1 analog with alanine replacements (RGGRLAYARRRFAVAVGR-NH2)	23	failed to inhibit	33	failed to inhibit
Protegrin-1 (RGGRLCYCRRRFCVCVGR; not fully specified; cysteine pairing not given here) [Compound 1, native porcine PG-1, 18-residue β-hairpin peptide with two disulfide bridges]	99	–	99.9	–
